Values after ≈ are worked out from the molar mass of the structure shown.
Columns and labels:
[1] = system: Mus musculus; experiment: Maximum rate of body weight loss after peroral administration of 17.8 mg/kg of compound in mice; format: functional; details: route oral
[2] = system: Mus musculus; experiment: Effective dose of perorally administered compound against B16 melanoma BL6 cells implanted into mice; range is 11.9-26.7; format: functional; details: B16, po
[3] = system: Mus musculus; experiment: Number of mice died at 17.8 mg/kg of intravenous dose among the total 6 mice tested; format: functional
[4] = system: Mus musculus; experiment: Maximum rate of body weight loss after intravenous administration of 26.7 mg/kg of compound in mice; format: functional
[5] = system: Mus musculus; experiment: Number of mice died at 11.9 mg/kg of intravenous dose, among the total 6 mice tested; format: functional
[6] = system: Mus musculus; experiment: Maximum rate of body weight loss after intravenous administration of 7.9 mg/kg of compound in mice; format: functional
[7] = system: Mus musculus; experiment: Maximum rate of body weight loss after intravenous administration of 11.9 mg/kg of compound in mice; <0 indicates no weight loss; format: functional
[8] = system: Mus musculus; experiment: Number of mice died at 26.7 mg/kg of intravenous dose of compound among the total 6 mice tested; format: functional
[9] = system: Mus musculus; experiment: Number of mice died at 11.9 mg/kg of peroral dose, among the total 6 mice tested; format: functional; details: route oral
[10] = system: Mus musculus; experiment: Number of mice died at 7.9 mg/kg of intravenous dose of compound among the total 6 mice tested; format: functional
[11] = system: Mus musculus; experiment: Maximum rate of body weight loss after intravenous administration of 17.8 mg/kg of compound in mice; format: functional
[12] = system: Mus musculus; experiment: Effective dose of intravenously administered compound against B16 melanoma BL6 cells implanted into mice; range is 7.9-17.8; format: functional; details: B16, iv
[13] = system: P388; experiment: Concentration required to inhibit mouse P388 cell line growth by 50% at 72 hr continuous exposure; format: functional; details: P388, 72 h
[14] = system: B16; experiment: Antitumor activity of 17.8 mg/kg of perorally administered compound against B16 melanoma BL6 cells implanted into mice, value reported is percent compared to control; format: functional, Mus musculus; details: route oral
[15] = system: Mus musculus; experiment: Maximum rate of body weight loss after peroral administration of 11.9 mg/kg of compound in mice; <0 indicates no weight loss; format: functional; details: route oral
[16] = system: Mus musculus; experiment: Number of mice died at 40.0 mg/kg of peroral dose of compound among the total 6 mice tested; format: functional; details: route oral
[17] = system: Mus musculus; experiment: Antitumor activity of 17.8 mg/kg of intravenously administered compound against B16 melanoma BL6 cells implanted into mice, value reported is percent compared to control; format: functional; details: route intravenous
[18] = system: Mus musculus; experiment: Antitumor activity of 26.7 mg/kg of perorally administered compound against B16 melanoma BL6 cells implanted into mice, value reported is percent compared to control; format: functional; details: route oral
[19] = system: Mus musculus; experiment: Maximum rate of body weight loss after peroral administration of 26.7 mg/kg of compound in mice; format: functional; details: route oral
[20] = system: Mus musculus; experiment: Antitumor activity of 26.7 mg/kg of intravenously administered compound against B16 melanoma BL6 cells implanted into mice, value reported is percent compared to control; format: functional; details: route intravenous
[21] = system: B16; experiment: Antitumor activity of 11.9 mg/kg of intravenously administered compound against B16 melanoma BL6 cells implanted into mice, value reported is percent compared to control; format: functional, Mus musculus; details: route intravenous
[22] = system: PC-6; experiment: Concentration required to inhibit human PC-6 cell line growth by 50% at 72 hr continuous exposure; format: functional; details: PC-6, 72 h
[23] = system: PC-6; experiment: Concentration required to inhibit human PC-6/VCR29-9 cell line growth by 50% at 72 hr exposure; format: functional; details: PC-6, 72 h
[24] = system: Mus musculus; experiment: Antitumor activity of 7.9 mg/kg of intravenously administered compound against B16 melanoma BL6 cells implanted into mice, value reported is percent compared to control; format: functional; details: route intravenous
[25] = system: PC-6; experiment: Concentration required to inhibit human PC-6/VP1-1 cell line growth by 50% at 72 hr exposure; format: functional; details: PC-6, 72 h
[26] = system: Mus musculus; experiment: Number of mice died at 17.8 mg/kg of peroral dose among the total 6 mice tested; format: functional; details: route oral
[27] = system: PC-12; experiment: Concentration required to inhibit human PC-12 cell line growth by 50% at 72 hr continuous exposure; format: functional; details: PC-12, 72 h
[28] = system: Mus musculus; experiment: Number of mice died at 26.7 mg/kg of peroral dose of compound among the total 6 mice tested; format: functional; details: route oral
[29] = system: B16; experiment: Antitumor activity of 11.9 mg/kg of perorally administered compound against B16 melanoma BL6 cells implanted into mice, value reported is percent compared to control; format: functional, Mus musculus; details: route oral
[30] = system: Mus musculus; experiment: Number of mice died at 7.9 mg/kg of peroral dose of compound among the total 6 mice tested; format: functional; details: route oral
[31] = system: Mus musculus; experiment: Effective dose of perorally administered compound against B16 melanoma BL6 cells implanted into mice; range is 7.9-17.8; format: functional; details: B16, po
[32] = system: Mus musculus; experiment: Maximum rate of body weight loss after intravenous administration of 7.9 mg/kg of compound in mice; <0 indicates no weight loss; format: functional
[33] = system: Mus musculus; experiment: Maximum rate of body weight loss after peroral administration of 11.9 mg/kg of compound in mice; <0 indicates no body weight loss; format: functional; details: route oral
[34] = system: Mus musculus; experiment: Antitumor activity of 7.9 mg/kg of perorally administered compound against B16 melanoma BL6 cells implanted into mice, value reported is percent compared to control; format: functional; details: route oral
[35] = system: Mus musculus; experiment: Maximum rate of body weight loss after peroral administration of 7.9 mg/kg of compound in mice; <0 indicates no body weight loss; format: functional; details: route oral
[36] = system: Mus musculus; experiment: Maximum rate of body weight loss after intravenous administration of 11.9 mg/kg of compound in mice; format: functional
[37] = system: Mus musculus; experiment: Number of mice died at 100 mg/kg of peroral dose of compound among the total 6 mice tested; format: functional; details: route oral
[38] = system: Mus musculus; experiment: Maximum rate of body weight loss after peroral administration of 100 mg/kg of compound in mice; format: functional; details: route oral
[39] = system: Mus musculus; experiment: Antitumor activity of 600 mg/kg of perorally administered compound against B16 melanoma BL6 cells implanted into mice, value reported is percent compared to control; format: functional; details: route oral
[40] = system: Mus musculus; experiment: Maximum rate of body weight loss after peroral administration of 600 mg/kg of compound in mice; <0 indicates no body weight loss; format: functional; details: route oral
[41] = system: Mus musculus; experiment: Number of mice died at 600 mg/kg of peroral dose of compound among the total 6 mice tested; format: functional; details: route oral
[42] = system: Mus musculus; experiment: Antitumor activity of 100 mg/kg of perorally administered compound against B16 melanoma BL6 cells implanted into mice, value reported is percent compared to control; format: functional; details: route oral

SMILES	BWLmax [1]	Mortality [3]	Mortality [5]	Mortality [8]	Mortality [9]	Mortality [10]	BWLmax [11]	ED50 [12]	GI50 [13]	IR [14]	IR [17]	IR [18]	BWLmax [19]	IR [21]	GI50 [22]	GI50 [23]	IR [24]	GI50 [25]	Mortality [26]	GI50 [27]	other results
CC(=O)O[C@@]12CO[C@@H]1CC[C@@]1(C)[C@@H]3O[C@H](CN4CCOCC4)O[C@@H]3C3=C(C)[C@@H](OC(=O)[C@H](O)[C@@H](NC(=O)OC(C)(C)C)c4nccs4)C[C@@](O)([C@@H](OCc4ccccc4)[C@@H]12)C3(C)C	8.8%	0	0	2	0	0	7.1%	17.8 mg/kg	0.06 ng/mL (≈ 0.0668 nM)	97%	96.9%	97.8%	10%	85.7%	0.12 ng/mL (≈ 0.134 nM)	1.37 ng/mL (≈ 1.53 nM)	79.1%	19.7 ng/mL (≈ 21.9 nM)	0	0.13 ng/mL (≈ 0.145 nM)	ED50 [2]: 26.7 mg/kg; BWLmax [4]: 15%; BWLmax [6]: 1.5%; BWLmax [7]: <0%; BWLmax [15]: <0%; Mortality [16]: 6; IR [20]: 98.3%; Mortality [28]: 0; IR [29]: 77.9%
CC(=O)O[C@@]12CO[C@@H]1CC[C@@]1(C)[C@@H]3O[C@H](CN(C)C)O[C@@H]3C3=C(C)[C@@H](OC(=O)[C@H](O)[C@@H](NC(=O)OC(C)(C)C)c4ccccn4)C[C@@](O)([C@@H](OCc4ccccc4)[C@@H]12)C3(C)C	8.8%	0	0	6	0	0	8.6%	17.8 mg/kg	0.41 ng/mL (≈ 0.482 nM)	97%	97.7%	97.5%	13.1%	95%	0.38 ng/mL (≈ 0.447 nM)	4.04 ng/mL (≈ 4.75 nM)	82.3%	54.2 ng/mL (≈ 63.8 nM)	0	0.74 ng/mL (≈ 0.871 nM)	Mortality [30]: 0; ED50 [31]: 17.8 mg/kg; BWLmax [32]: <0%; BWLmax [33]: <0%; IR [34]: 72.8%; BWLmax [35]: <0%; Mortality [28]: 1; BWLmax [36]: 1%; IR [29]: 88.8%
CC(=O)O[C@@]12CO[C@@H]1C[C@H](O)[C@@]1(C)C(=O)[C@H](O)C3=C(C)[C@@H](OC(=O)[C@H](O)[C@@H](NC(=O)OC(C)(C)C)c4ccccc4)C[C@@](O)([C@@H](OCc4ccccc4)[C@H]21)C3(C)C	–	–	–	–	–	–	–	–	0.78 ng/mL (≈ 0.982 nM)	–	–	–	–	–	0.26 ng/mL (≈ 0.327 nM)	62.1 ng/mL (≈ 78.2 nM)	–	442 ng/mL (≈ 557 nM)	–	19.1 ng/mL (≈ 24.1 nM)	Mortality [37]: 0; BWLmax [38]: <0%; IR [39]: 6.2%; BWLmax [40]: <0%; Mortality [41]: 0; IR [42]: 95.1%

From ChEMBL document CHEMBL1146649, “New highly active taxoids from 9 beta-dihydrobaccatin-9,10-acetals. Part 5” (2004)
